The experiment addresses T1, NLRP3 inflammasome (Homo sapiens, UniProt Q96P20).
T1 construct: host or cells: THP-1 human monocytic cells, PMA-treated, stimulated with gramicidin
In words: ASC-SPECK formation in THP-1 cells after gramicidin stimulation (NLRP3 inflammasome activation). The class given is cell-based. As to conditions: PMA-treated human monocytic THP-1 cells, compound 1 h before 12.5 ug/ml gramicidin, 3 h, ASC SPECK imaging; read-out: EC50 (nM) for Examples that inhibit NLRP3 inflammasome activation. As to the method: The ability of compounds to inhibit NLRP3 inflammasome activation was determined in vitro by monitoring formation of the ASC-SPECK in human monocytic THP-1 cells after stimulation. THP-1 cells (ATCC catalog #TIB-202) were maintained in complete growth media containing Roswell Park Memorial Institute RPMI (ATCC catalog #30-2001), 10% heat inactivated fetal bovine serum, 1× penicillin/streptomycin and 0.05 mM 2-mercaptoethanol. At the start of the assay, undifferentiated THP-1 cells were plated at a density of 20,000 cells per well in a 384-well plate (Poly-D-lysine coated Cell Carrier Ultra microplate, Perkin Elmer catalog #6057500) in complete growth media supplemented with 10 ng/ml phorbol 12-myristate 13-acetate (PMA; Sigma catalog #P8139), and then incubated overnight. The next day, media was replaced with assay media [RPMI (Gibco catalog #11875-093), 0.01% bovine serum albumin (BSA)]. Compounds were serially diluted in DMSO and then added to wells one hour prior to the addition of 12.5 ug/ml Gramicidin (Enzo Lifescience, catalog #ALX-350-233-M005). All incubations were carried out at 37° C. (5% CO2/95% air). Following a 3-hour treatment with gramicidin, cells are fixed with 4% paraformaldehyde and stored at 4° C. until immunofluorescence staining.
Immunofluorescence staining: Anti-ASC antibody (MBL catalog #D086-3) was desalted and labeled with Alexa 488 antibody labeling kit (Thermo catalog #A20181) prior to use as described below. After fixation, the following steps were carried out at room temperature. Cells were first permeabilized with 0.3% Triton X-100 in phosphate-buffered saline (PBS) for 15 minutes and then incubated in blocking buffer containing 5% goat serum, 0.3% tween-20 and 0.03% sodium azide in PBS for 1 hour. Cells were stained with a mixture of ASC-Alexa 488 antibody (diluted 1:200 in blocking buffer) and nuclear stain DRAQ5 (1:5000 in blocking buffer, Thermo catalog #62251) in blocking buffer for 1 hour. Following a wash with 0.3% Tween-20 in PBS, plates were imaged with an Opera Phenix High Content Screening System. The number of DRAQ5 positive cells containing ASC SPECKS were quantified in each well.
Data analysis: EC50 values were calculated by standard curve-fitting analysis using an internally developed program in TIBCO Spotfire software.
T1 sequence (Q96P20 whole entry): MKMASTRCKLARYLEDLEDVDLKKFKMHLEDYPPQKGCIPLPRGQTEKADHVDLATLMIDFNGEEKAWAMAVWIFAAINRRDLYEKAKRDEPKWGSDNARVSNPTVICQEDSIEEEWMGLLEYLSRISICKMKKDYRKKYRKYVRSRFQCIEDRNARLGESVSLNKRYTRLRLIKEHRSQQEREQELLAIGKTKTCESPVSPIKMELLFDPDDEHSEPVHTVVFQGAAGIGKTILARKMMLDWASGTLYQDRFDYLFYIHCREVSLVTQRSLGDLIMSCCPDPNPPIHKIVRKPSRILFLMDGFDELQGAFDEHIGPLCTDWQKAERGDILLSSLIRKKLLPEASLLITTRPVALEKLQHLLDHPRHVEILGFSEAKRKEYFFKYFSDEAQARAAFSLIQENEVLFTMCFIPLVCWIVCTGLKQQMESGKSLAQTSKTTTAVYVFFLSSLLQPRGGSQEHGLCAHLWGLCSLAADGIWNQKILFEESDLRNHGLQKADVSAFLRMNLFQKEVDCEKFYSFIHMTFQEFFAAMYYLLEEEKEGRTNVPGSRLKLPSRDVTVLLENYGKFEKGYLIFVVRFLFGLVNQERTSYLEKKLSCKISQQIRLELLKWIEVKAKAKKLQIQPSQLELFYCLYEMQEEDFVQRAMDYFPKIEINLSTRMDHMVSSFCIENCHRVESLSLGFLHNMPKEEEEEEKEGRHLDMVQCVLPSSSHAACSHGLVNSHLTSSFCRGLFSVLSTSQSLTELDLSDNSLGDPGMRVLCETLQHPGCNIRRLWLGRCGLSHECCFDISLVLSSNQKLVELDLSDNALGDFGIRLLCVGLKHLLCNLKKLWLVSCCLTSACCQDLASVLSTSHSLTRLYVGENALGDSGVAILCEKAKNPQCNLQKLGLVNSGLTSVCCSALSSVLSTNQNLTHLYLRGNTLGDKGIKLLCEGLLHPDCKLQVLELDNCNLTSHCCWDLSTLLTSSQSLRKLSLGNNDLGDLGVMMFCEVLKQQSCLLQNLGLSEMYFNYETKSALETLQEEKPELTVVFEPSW
For `O=C1CCC2(CCN(c3nnc(-c4ccc(C(F)(F)F)cc4O)c4cccnc34)CC2)O1` [Example 42, 8-(5-(2-hydroxy-4-(trifluoromethyl)phenyl)pyrido [2,3-d]pyridazin-8-yl)-1-oxa-8-azaspiro[4.5]decan-2-one], the EC50 was determined as 952 nM. The figure for `CC(C)(O)[C@@H]1CCN(c2nnc(-c3ccc(C(F)(F)F)cc3O)c3cccnc23)C1` [Example 49, (R)-2-(8-(3-(2-hydroxypropan-2-yl)pyrrolidin-1-yl)pyrido[2,3-d]pyridazin-5-yl)-5-(trifluoromethyl)phenol] is 1790 nM; for `CC(C)(O)[C@H]1CCN(c2nnc(-c3ccc(C(F)(F)F)cc3O)c3cccnc23)C1` [Example 50, (S)-2-(8-(3-(2-hydroxypropan-2-yl)pyrrolidin-1-yl)pyrido[2,3-d]pyridazin-5-yl)-5-(trifluoromethyl)phenol] it is 1330 nM. The figure for `Cc1cc(C(F)(F)F)ccc1-c1nnc([C@H]2C[C@@H](C)O[C@@H](C)C2)c2ccccc12` [Example 53, 1-((2R,4r,6S)-2,6-dimethyltetrahydro-2H-pyran-4-yl)-4-(2-methyl-4-(trifluoromethyl)phenyl)phthalazine] is 3970 nM; for `C[C@@H]1C[C@](O)(c2nnc(-c3ccc(C(F)(F)F)cc3O)c3cccnc23)C[C@H](C)O1` [Example 54, (2R,4s,6S)-4-(5-(2-hydroxy-4-(trifluoromethyl)phenyl)pyrido[2,3-d]-pyridazin-8-yl)-2,6-dimethyltetrahydro-2H-pyran-4-ol] it is 1100 nM.

For the compound `C[C@@H]1C[C@@](O)(c2nnc(-c3ccc(C(F)(F)F)cc3O)c3cccnc23)C[C@H](C)O1` [Example 55, (2R,4r,6S)-4-(5-(2-hydroxy-4-(trifluoromethyl)phenyl)pyrido[2,3-d]-pyridazin-8-yl)-2,6-dimethyltetrahydro-2H-pyran-4-ol], the EC50 was 1340 nM. As for `C[C@]1(O)CCN(c2nnc(-c3ccc(C(F)(F)F)cc3O)c3ccc(C(F)F)nc23)C1` [Example 56], the EC50 was found to be 90 nM. As for `C[C@]1(O)CCN(c2nnc(-c3ccc(C(F)(F)F)cc3O)c3cc(C(F)F)cnc23)C1` [Example 57], the EC50 came to 1570 nM.

The term EC50 denotes the concentration at which the effect is half-maximal.

The values above are taken from patent US20240124451A1, “PHTHALAZINE DERIVATIVES USEFUL AS INHIBITORS OF NOD-LIKE RECEPTOR PROTEIN 3” (Merck Sharp & Dohme LLC, priority 2022, published 2024).
